Data published in US20260242351A1, “LZK INHIBITORS” (Uereka Biosciences, Inc., priority 2023, published 2026).
Counter-ions that a name gives are not always drawn.

Columns and labels:
LZK = target: T1, LZK (Homo sapiens, UniProt O43283); assay: LZK and DLK Inhibition Assay (competition binding to liganded affinity beads, qPCR readout): LZK; settings: kinase produced in HEK-293 cells, 11-point 3-fold dilution series
T1 construct: made in house; host or cells: HEK-293 cells
T1 sequence (O43283 1-966): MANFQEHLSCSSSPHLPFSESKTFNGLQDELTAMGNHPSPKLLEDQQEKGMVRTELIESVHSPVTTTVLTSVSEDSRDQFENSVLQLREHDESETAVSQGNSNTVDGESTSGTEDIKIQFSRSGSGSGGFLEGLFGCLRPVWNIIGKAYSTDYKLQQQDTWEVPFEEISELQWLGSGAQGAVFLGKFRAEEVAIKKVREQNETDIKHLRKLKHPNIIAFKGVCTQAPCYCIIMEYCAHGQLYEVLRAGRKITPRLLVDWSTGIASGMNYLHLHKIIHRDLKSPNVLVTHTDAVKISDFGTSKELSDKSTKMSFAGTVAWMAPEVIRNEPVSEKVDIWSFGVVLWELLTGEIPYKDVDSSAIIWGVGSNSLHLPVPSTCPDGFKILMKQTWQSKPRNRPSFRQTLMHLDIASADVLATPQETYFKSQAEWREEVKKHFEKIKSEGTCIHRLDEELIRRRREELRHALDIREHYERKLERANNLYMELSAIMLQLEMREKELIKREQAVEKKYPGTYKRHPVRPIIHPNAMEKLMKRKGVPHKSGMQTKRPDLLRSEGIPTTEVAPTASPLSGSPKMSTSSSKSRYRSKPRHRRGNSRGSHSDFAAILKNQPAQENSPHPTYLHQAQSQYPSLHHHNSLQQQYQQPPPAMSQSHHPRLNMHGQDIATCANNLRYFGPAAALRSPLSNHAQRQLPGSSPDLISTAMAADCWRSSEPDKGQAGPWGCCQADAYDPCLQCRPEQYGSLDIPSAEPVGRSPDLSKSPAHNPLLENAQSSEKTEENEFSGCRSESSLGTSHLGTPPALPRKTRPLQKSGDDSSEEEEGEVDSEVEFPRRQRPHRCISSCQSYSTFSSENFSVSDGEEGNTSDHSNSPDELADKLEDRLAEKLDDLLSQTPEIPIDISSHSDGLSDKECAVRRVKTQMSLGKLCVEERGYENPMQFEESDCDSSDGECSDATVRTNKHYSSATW
Protocol: (§1) The kinases were produced in HEK-293 cells and subsequently tagged with DNA for qPCR detection. Streptavidin-coated magnetic beads were treated with biotinylated small molecule ligands for 30 minutes at room temperature to generate affinity resins for the kinase assays. The liganded beads were blocked with excess biotin and washed with blocking buffer (SeaBlock (Pierce), 1% BSA, 0.05% Tween 20, 1 mM DTT) to remove unbound ligand and to reduce non-specific binding. Binding reactions were assembled by combining LZK and DLK kinases, liganded affinity beads, and test compounds in 1× binding buffer (20% SeaBlock, 0.17×PBS, 0.05% Tween 20, 6 mM DTT). Test compounds were prepared as 111× stocks in 100% DMSO. Kds were determined using an 11-point 3-fold compound dilution series with three DMSO control points. All compounds for Kd measurements are distributed by acoustic transfer (non-contact dispensing) in 100% DMSO. The compounds were then diluted directly into the assays such that the final concentration of DMSO was 0.9%. All reactions performed in polypropylene 384-well plate. Each was a final volume of 0.02 mL. The assay plates were incubated at room temperature with shaking for 1 hour and the affinity beads were washed with wash buffer (lx PBS, 0.05% Tween 20). The beads were then re-suspended in elution buffer (1×PBS, 0.05% Tween 20, 0.5 μM nonbiotinylated affinity ligand) and incubated at room temperature with shaking for 30 minutes. The kinase concentration in the eluates was measured by qPCR.

DLK = target: T2, DLK (Homo sapiens, UniProt Q12852); assay: LZK and DLK Inhibition Assay (competition binding to liganded affinity beads, qPCR readout): DLK; settings: kinase produced in HEK-293 cells, 11-point 3-fold dilution series
T2 construct: made in house; host or cells: HEK-293 cells
T2 sequence (Q12852 1-859): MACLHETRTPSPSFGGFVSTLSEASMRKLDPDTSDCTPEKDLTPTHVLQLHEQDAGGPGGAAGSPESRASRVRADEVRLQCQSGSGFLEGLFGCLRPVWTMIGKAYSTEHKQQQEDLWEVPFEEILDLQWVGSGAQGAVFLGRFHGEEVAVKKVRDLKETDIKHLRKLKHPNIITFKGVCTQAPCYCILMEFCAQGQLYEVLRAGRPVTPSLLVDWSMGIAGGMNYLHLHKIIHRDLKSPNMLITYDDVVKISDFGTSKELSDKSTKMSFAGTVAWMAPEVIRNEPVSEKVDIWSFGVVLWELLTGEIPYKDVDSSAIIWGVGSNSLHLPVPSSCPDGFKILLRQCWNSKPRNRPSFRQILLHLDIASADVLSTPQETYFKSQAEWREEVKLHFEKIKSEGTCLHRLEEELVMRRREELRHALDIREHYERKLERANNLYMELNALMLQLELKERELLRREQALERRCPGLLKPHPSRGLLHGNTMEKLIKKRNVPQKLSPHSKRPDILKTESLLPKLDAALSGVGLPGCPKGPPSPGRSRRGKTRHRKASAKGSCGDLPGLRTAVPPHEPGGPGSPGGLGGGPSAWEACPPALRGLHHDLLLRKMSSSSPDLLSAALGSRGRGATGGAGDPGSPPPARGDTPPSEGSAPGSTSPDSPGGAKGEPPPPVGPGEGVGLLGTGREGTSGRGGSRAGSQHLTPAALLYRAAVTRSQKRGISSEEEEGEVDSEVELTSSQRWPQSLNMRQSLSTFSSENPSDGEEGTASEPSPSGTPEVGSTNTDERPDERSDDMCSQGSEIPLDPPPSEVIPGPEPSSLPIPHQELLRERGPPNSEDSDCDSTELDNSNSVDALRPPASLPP
Protocol: as §1

`Fc1c(C2CCN(CC3CC3)CC2)cc(Nc2cnc(C3CC3)cn2)nc1N1CC2CC2C1` (stereo not shown) [Compound 1, N-(6-(3-Azabicyclo[3.1.0]hexan-3-yl)-4-(1-(cyclopropylmethyl)piperidin-4-yl)-5-fluoropyridin-2-yl)-5-cyclopropylpyrazin-2-amine] showed an IC50 (LZK) of no more than 100 nM and an IC50 (DLK) of no more than 100 nM.
`Fc1c(C2CCN(CC3CC3)CC2)cc(N2CC3CC3C2)nc1Nc1cnc(C2CC2)cn1` (stereo not shown) [Compound 2, N-(6-(3-Azabicyclo[3.1.0]hexan-3-yl)-4-(1-(cyclopropylmethyl)piperidin-4-yl)-3-fluoropyridin-2-yl)-5-cyclopropylpyrazin-2-amine] was tested, and the IC50 (LZK) was 100 to 1000 nM and the IC50 (DLK) was no more than 100 nM.
`Fc1c(N2CCNCC2)cc(Nc2ccc(C(F)F)cn2)nc1N1CCOCC1` [Compound 3, N-(5-(Difluoromethyl)pyridin-2-yl)-5-fluoro-6-morpholino-4-(piperazin-1-yl)pyridin-2-amine di-TFA salt] gave an IC50 (LZK) of 100 to 1000 nM and an IC50 (DLK) of 100 to 1000 nM.
`Fc1c(N2CC3CC2CN3)cc(Nc2ccc(C(F)F)cn2)nc1N1CCOCC1` (stereo not shown) [Compound 4, 4-(2,5-Diazabicyclo[2.2.1]heptan-2-yl)-N-(5-(difluoromethyl)pyridin-2-yl)-5-fluoro-6-morpholinopyridin-2-amine di-TFA salt] was tested, and the IC50 (LZK) was 1000 to 10000 nM and the IC50 (DLK) was 1000 to 10000 nM.
`Fc1c(N2CCNCC2)cc(Nc2ccc(C(F)(F)F)cn2)nc1N1CCOCC1` [Compound 5, 5-Fluoro-6-morpholino-4-(piperazin-1-yl)-N-(5-(trifluoromethyl)pyridin-2-yl)pyridin-2-amine] gave an IC50 (LZK) of 100 to 1000 nM and an IC50 (DLK) of 1000 to 10000 nM.
In the case of `Fc1c(N2CC3CC2CN3)cc(Nc2ccc(C(F)(F)F)cn2)nc1N1CCOCC1` (stereo not shown) [Compound 6, 4-(2,5-Diazabicyclo[2.2.1]heptan-2-yl)-5-fluoro-6-morpholino-N-(5-(trifluoromethyl)pyridin-2-yl)pyridin-2-amine], the IC50 (LZK) is reported as 1000 to 10000 nM and the IC50 (DLK) is reported as 1000 to 10000 nM.
In the case of `Clc1c(C2CCN(CC3CC3)CC2)cc(Nc2cnc(C3CC3)cn2)nc1N1CC2CC2C1` (stereo not shown) [Compound 7, N-(6-(3-Azabicyclo[3.1.0]hexan-3-yl)-5-chloro-4-(1-(cyclopropylmethyl)piperidin-4-yl)pyridin-2-yl)-5-cyclopropylpyrazin-2-amine TFA salt], the IC50 (LZK) is reported as 1000 to 10000 nM and the IC50 (DLK) is reported as 1000 to 10000 nM.
For `N#Cc1c(C2CCN(CC3CC3)CC2)cc(Nc2cnc(C3CC3)cn2)nc1N1CC2CC2C1` (stereo not shown) [Compound 8, 2-(3-Azabicyclo[3.1.0]hexan-3-yl)-4-(1-(cyclopropylmethyl)piperidin-4-yl)-6-((5-cyclopropylpyrazin-2-yl)amino)nicotinonitrile formic acid salt], the IC50 (LZK) was no more than 100 nM and the IC50 (DLK) was no more than 100 nM.
Work on `Nc1c(C2CCN(CC3CC3)CC2)cc(Nc2cnc(C3CC3)cn2)nc1N1CC2CC2C1` (stereo not shown) [Compound 9, 6-(3-azabicyclo[3.1.0]hexan-3-yl)-4-(1-(cyclopropylmethyl)piperidin-4-yl)-N2-(5-cyclopropylpyrazin-2-yl)pyridine-2,5-diamine 2,2,2-trifluoroacetate] yielded an IC50 (LZK) of no more than 100 nM and an IC50 (DLK) of no more than 100 nM.
`Fc1c(N2CCNCC2)cc(Nc2cnc(C3CC3)cn2)nc1N1CCOCC1` [Compound 10, 5-Cyclopropyl-N-(5-fluoro-6-morpholino-4-(piperazin-1-yl)pyridin-2-yl)pyrazin-2-amine] was tested, and the IC50 (LZK) was no more than 100 nM.
